Data reported in BindingDB's records for doi:10.1021/jm00020a029 (Merck Research Laboratories, 1995).
Where a SMILES comes first, the peptide text is derived from it. [ ]: non-standard residue; d: D form. Phe(4-F) = N[C@@H](Cc1ccc(F)cc1)C(=O)O; hArg = N=C(N)NCCCC[C@H](N)C(=O)O; Aib = CC(C)(N)C(=O)O; GABA = NCCCC(=O)O

Assay: Evaluated for the activation of human thrombin receptor measured by platelet aggregation

EC50	SMILES
0.5 µM	CC(C)C[C@H](NC(=O)[C@H](CC(C)C)NC(=O)[C@H](Cc1ccccc1)NC(=O)[C@@H](N)CO)C(=O)N[C@@H](CCCN=C(N)N)C(=O)N[C@@H](CC(N)=O)C(=O)N1CCC[C@H]1C(N)=O [1-{(S)-2-[(S)-2-((S)-2-{(S)-2-[(S)-2-((S)-2-Amino-3-hydroxy-propionylamino)-3-phenyl-propionylamino]-4-methyl-pentanoylamino}-4-methyl-pentanoylamino)-5-guanidino-pentanoylamino]-3-carbamoyl-propionyl}-pyrrolidine-2-carboxylic acid amide] (H-SFLLRNP-NH2)
> 800 µM	CC(C)C[C@H](NC(=O)[C@@H](CC(C)C)NC(=O)[C@H](Cc1ccccc1)NC(=O)[C@@H](N)CO)C(=O)N[C@@H](CCCNC(=N)N)C(N)=O [(R)-2-[(S)-2-((S)-2-Amino-3-hydroxy-propionylamino)-3-phenyl-propionylamino]-4-methyl-pentanoic acid [(S)-1-((S)-1-carbamoyl-4-guanidino-butylcarbamoyl)-3-methyl-butyl]-amide]
200 µM	CC(=O)N[C@@H](Cc1ccccc1)C(=O)N[C@@H](CC(C)C)C(=O)N[C@@H](CC(C)C)C(=O)N[C@@H](CCCNC(=N)N)C(N)=O [(S)-2-((S)-2-Acetylamino-3-phenyl-propionylamino)-4-methyl-pentanoic acid [(S)-1-((S)-1-carbamoyl-4-guanidino-butylcarbamoyl)-3-methyl-butyl]-amide] (Ac-FLLR-NH2)
> 800 µM	CC(C)C[C@H](NC(=O)[C@H](CC(C)C)NC(=O)[C@@H](N)Cc1ccccc1)C(=O)N[C@@H](CCCNC(=N)N)C(N)=O [(S)-2-((S)-2-Amino-3-phenyl-propionylamino)-4-methyl-pentanoic acid [(S)-1-((S)-1-carbamoyl-4-guanidino-butylcarbamoyl)-3-methyl-butyl]-amide] (H-FLLR-NH2)
0.12 µM	CC(C)C[C@H](NC(=O)[C@H](CC(C)C)NC(=O)[C@H](Cc1ccc(F)cc1)NC(=O)[C@H](C)N)C(=O)N[C@@H](CCCCNC(=N)N)C(N)=O [(S)-2-((S)-2-{(S)-2-[(S)-2-((S)-2-Amino-propionylamino)-3-(4-fluoro-phenyl)-propionylamino]-4-methyl-pentanoylamino}-4-methyl-pentanoylamino)-6-guanidino-hexanoic acid amide] (H-A[Phe(4-F)]LL[hArg]-NH2)
> 1200 µM	CC(C)C[C@H](NC(=O)[C@H](CC(C)C)NC(=O)[C@H](Cc1ccccc1)NC(=O)[C@@H](N)CCCNC(=N)N)C(=O)N[C@@H](CCCNC(=N)N)C(N)=O [(S)-2-Amino-5-guanidino-pentanoic acid ((S)-1-{(S)-1-[(S)-1-((S)-1-carbamoyl-4-guanidino-butylcarbamoyl)-3-methyl-butylcarbamoyl]-3-methyl-butylcarbamoyl}-2-phenyl-ethyl)-amide] (H-RFLLR-NH2)
> 800 µM	NC(=O)[C@H](Cc1ccccc1)NC(=O)[C@@H](N)CO [(S)-2-Amino-N-((S)-1-carbamoyl-2-phenyl-ethyl)-3-hydroxy-propionamide]
> 800 µM	CC(C)C[C@H](NC(=O)[C@H](CC(C)C)NC(=O)[C@@H](Cc1ccccc1)NC(=O)[C@@H](N)CO)C(=O)N[C@@H](CCCNC(=N)N)C(N)=O [(S)-2-[(R)-2-((S)-2-Amino-3-hydroxy-propionylamino)-3-phenyl-propionylamino]-4-methyl-pentanoic acid [(S)-1-((S)-1-carbamoyl-4-guanidino-butylcarbamoyl)-3-methyl-butyl]-amide]
415 µM	CC(C)C[C@H](NC(=O)[C@H](CC(C)C)NC(=O)[C@H](Cc1ccccc1)NC(=O)C(C)(C)N)C(=O)N[C@@H](CCCNC(=N)N)C(N)=O [(S)-2-[(S)-2-(2-Amino-2-methyl-propionylamino)-3-phenyl-propionylamino]-4-methyl-pentanoic acid [(S)-1-((S)-1-carbamoyl-4-guanidino-butylcarbamoyl)-3-methyl-butyl]-amide] (H-[Aib]FLLR-NH2)
1.2 µM	CC(C)C[C@H](NC(=O)[C@H](CC(C)C)NC(=O)[C@H](Cc1ccccc1)NC(=O)CN)C(=O)N[C@@H](CCCNC(=N)N)C(N)=O [(S)-2-[(S)-2-(2-Amino-acetylamino)-3-phenyl-propionylamino]-4-methyl-pentanoic acid [(S)-1-((S)-1-carbamoyl-4-guanidino-butylcarbamoyl)-3-methyl-butyl]-amide] (H-GFLLR-NH2)
730 µM	CC(C)C[C@H](NC(=O)[C@H](CC(C)C)NC(=O)[C@H](Cc1ccccc1)NC(=O)CCCN)C(=O)N[C@@H](CCCNC(=N)N)C(N)=O [(S)-2-[(S)-2-(4-Amino-butyrylamino)-3-phenyl-propionylamino]-4-methyl-pentanoic acid [(S)-1-((S)-1-carbamoyl-4-guanidino-butylcarbamoyl)-3-methyl-butyl]-amide] (H-[GABA]FLLR-NH2)
800 µM	CC(C)C[C@H](NC(=O)[C@H](CC(C)C)NC(=O)[C@H](Cc1ccccc1)NC(=O)[C@H](N)CO)C(=O)N[C@@H](CCCNC(=N)N)C(N)=O [(S)-2-[(S)-2-((R)-2-Amino-3-hydroxy-propionylamino)-3-phenyl-propionylamino]-4-methyl-pentanoic acid [(S)-1-((S)-1-carbamoyl-4-guanidino-butylcarbamoyl)-3-methyl-butyl]-amide]
500 µM	CC(C)C[C@H](NC(=O)[C@H](Cc1ccccc1)NC(=O)[C@@H](N)CO)C(=O)N[C@H](CC(C)C)C(=O)N[C@@H](CCCNC(=N)N)C(N)=O [(S)-2-[(S)-2-((S)-2-Amino-3-hydroxy-propionylamino)-3-phenyl-propionylamino]-4-methyl-pentanoic acid [(R)-1-((S)-1-carbamoyl-4-guanidino-butylcarbamoyl)-3-methyl-butyl]-amide]
109 µM	CC(C)C[C@H](NC(=O)[C@H](Cc1ccccc1)NC(=O)[C@@H](N)CO)C(=O)N[C@@H](CC(C)C)C(=O)N[C@H](CCCNC(=N)N)C(N)=O [(S)-2-[(S)-2-((S)-2-Amino-3-hydroxy-propionylamino)-3-phenyl-propionylamino]-4-methyl-pentanoic acid [(S)-1-((R)-1-carbamoyl-4-guanidino-butylcarbamoyl)-3-methyl-butyl]-amide]
1 µM	CC(C)C[C@H](NC(=O)[C@H](CC(C)C)NC(=O)[C@H](Cc1ccccc1)NC(=O)[C@@H](N)CO)C(=O)N[C@@H](CCCNC(=N)N)C(N)=O [(S)-2-[(S)-2-((S)-2-Amino-3-hydroxy-propionylamino)-3-phenyl-propionylamino]-4-methyl-pentanoic acid [(S)-1-((S)-1-carbamoyl-4-guanidino-butylcarbamoyl)-3-methyl-butyl]-amide]
15 µM	CC(C)C[C@H](NC(=O)[C@H](Cc1ccccc1)NC(=O)[C@@H](N)CO)C(=O)N[C@@H](C)C(=O)N[C@@H](CCCNC(=N)N)C(N)=O [(S)-2-[(S)-2-((S)-2-Amino-3-hydroxy-propionylamino)-3-phenyl-propionylamino]-4-methyl-pentanoic acid [(S)-1-((S)-1-carbamoyl-4-guanidino-butylcarbamoyl)-ethyl]-amide] (H-SFLAR-NH2)
70 µM	CC(C)C[C@H](NC(=O)[C@H](CC(C)C)NC(=O)[C@H](Cc1ccccc1)NC(=O)[C@@H](N)CO)C(=O)N[C@@H](C)C(N)=O [(S)-2-[(S)-2-((S)-2-Amino-3-hydroxy-propionylamino)-3-phenyl-propionylamino]-4-methyl-pentanoic acid [(S)-1-((S)-1-carbamoyl-ethylcarbamoyl)-3-methyl-butyl]-amide] (H-SFLLA-NH2)
